Publication PMC5294416, “Novel peptides for deciphering structural and signalling functions of E-cadherin in mouse embryonic stem cells” (Scientific Reports, 2017)
Primed or numbered codes have the meaning given here. Ends that are not written are not given here. FITC′ = fluorescein-5(6)-isothiocyanate; Nova linker = not defined here

Experiments:
[1] = target: T1, recombinant mouse E-Cadherin Fc Chimera (Mus musculus, UniProt P09803); assay: Biacore SPR equilibrium binding analysis (affinity capture); settings: equilibrium analysis using affinity capture on HTE chip, peptide stock in water, average of three runs, running buffer HBS/0.02% Tween/2 mM CaCl2/1 mM MgCl2
T1 construct: purchased R&D Systems
Experimental: Biacore SPR analysis was used to measure the interaction between peptides and recombinant mouse E-Cadherin Fc Chimera (R&D Systems). Analytes were passed over an HTE chip with surface bound His-tagged Recombinant Mouse E-Cadherin Fc Chimera (R&D Systems). The kinetics of interaction, i.e. the rates of complex formation (ka) and dissociation (kd), were determined and Integrin α4β7 protein was used as a control. Analysis was performed by the Biomolecular Analysis Core Facility (The University of Manchester, UK) on a Proteon XPR-36 protein interaction array system (Bio-Rad) using a HTE chip for high capacity His-tagged protein capture (Bio-Rad). Equilibrium analysis runs were performed three times and an average KD was calculated. Running buffer: HBS/0.02%, Tween/2 mM, CaCl2/1 mM MgCl2.

wtD3 mESCs [2] = assay: Loss of cell-cell contact, phase contrast microscopy; assay type: cell-based, mouse; settings: for Effect on cell-cell contact (in words): wtD3 mESCs, 10 μM peptide, 24 h, phase contrast
Experimental: (§1) Unless otherwise stated, mESC lines were grown on gelatinised tissue culture grade 6-well plates at 37 °C/5% CO2, as previously described. mESCs cells were treated with 10 μM peptide in mESC culture medium which was replenished every 24 h. Inhibition of specific pathways in mESCs was achieved by incubation with 10 μM LY294002 (PI3K inhibitor), PD9805 (MEK inhibitor) and SB431542 (TGFβ1 R inhibitor).

wtD3 and Ecad−/− mESCs = assay: Binding of fluorescent-tagged peptides to wtD3 versus Ecad−/− mESCs; assay type: cell-based, mouse; settings: fluorescein-tagged peptide, 500 μM, 15 minutes, 37 °C, immunofluorescence microscopy / flow cytometry
Experimental: D3 and Ecad^−/− mESCs were treated with Epep-F or EpepW2R-F at concentrations of 0 (control), 5, 10, 25, 50 and 500 μM in culture medium as a monolayer on ice. Ice cold conditions were utilised to minimise endocytosis of fluorescent tagged peptide. Cells were harvested using cell dissociation buffer, centrifuged and washed with PBS and fixed in 500 μl 1% w/v paraformaldehyde (PFA) in PBS for analysis using a FACSCalibur (BD Biosciences, California, USA). Viable cells were gated using forward scatter and side scatter and all data shown represents quantification of the fluorescence emitted by this population.
Monolayer cultured mESCs were fixed in situ in 4% w/v PFA in PBS for 30 minutes at room temperature, washed twice with PBS and blocked with 1% goat serum in 0.1% w/v BSA, 0.1% Triton X-100 in PBS for 30 minutes. Cells were incubated in the appropriate primary antibody in goat blocking buffer for two hours at RT. […] Cells were washed three times with PBS, mounted in 4′6-diamidino-2-phenylindole (DAPI) (Vector Laboratories) and visualized using a Leica DM6000B fluorescence microscope (Leica Microsystems) and processed using Leica LAS X Core software (Leica Microsystems). […] Cells were visualized using a Leica DM6000B fluorescence microscope (Leica Microsystems) and processed using Leica LAS X Core software (Leica Microsystems). […]

[3] = Water solubility of peptides; assay type: physicochemical
Experimental: All peptides were synthesised by Severn Biotech Ltd (UK) as a lyophilized powder. Peptides were solubilised to a stock solution of 100 mM in ddH20, unless otherwise stated. Peptides were tagged with a Fluorescin-5(6) molecule at the NH2-terminus, separated by a Nova linker molecule, and assessed for activity prior to use (inhibition of cell-cell contact).

[4] = test system: OCT4 protein in wtD3 mESCs; assay: Immunofluorescence microscopy analysis of OCT4 protein expression with pathway inhibitors; assay type: cell-based, mouse; settings: for OCT4 protein expression, inhibitor with vehicle control: wtD3 mESCs, no peptide, after 5 days
Experimental: as §1
(§2) Monolayer cultured mESCs were fixed in situ in 4% w/v PFA in PBS for 30 minutes at room temperature, washed twice with PBS and blocked with 1% goat serum in 0.1% w/v BSA, 0.1% Triton X-100 in PBS for 30 minutes. Cells were incubated in the appropriate primary antibody in goat blocking buffer for two hours at RT. Cells were washed three times in PBS and incubated in the appropriate Alexa fluor-488 or −546 conjugated secondary antibody at RT for 1 hour in the dark. Cells were washed three times with PBS, mounted in 4′6-diamidino-2-phenylindole (DAPI) (Vector Laboratories) and visualized using a Leica DM6000B fluorescence microscope (Leica Microsystems) and processed using Leica LAS X Core software (Leica Microsystems). Primary antibodies: anti-Nanog, 1:200 dilution (ab80892, Abcam Plc, Cambridge, UK); anti-Oct4, 1:200 dilution (ab19857, Abcam Plc, Cambridge, UK). For immunofluorescence microscopy analysis of fluorescent-tagged peptides, cells were incubated in 500 μM peptide in cell culture medium for 15 minutes, washed twice in ice cold PBS and mounted with Vectorshield containing DAPI. Cells were visualized using a Leica DM6000B fluorescence microscope (Leica Microsystems) and processed using Leica LAS X Core software (Leica Microsystems).
(§3) Images were imported into ImageJ and fluorescence intensity measured using the Analyse > Measure function on areas selected using the rectangular or oval selection icons.

wtD3 mESCs [5] = assay type: cell-based; settings: 24 h, 10 μM
Source text: Cell viability was quantified using an Alexa Fluor 488 Annexin V/Dead Cell Apoptosis Kit (Invitrogen) according to the manufacturer’s instructions.

[6] = test system: Nanog, Klf4, Tbx3, Esrrb, Nr0b1, Nr5a2 and Tet1 transcripts in wtD3 mESCs; assay: qPCR analysis of pluripotency transcript expression; assay type: cell-based, mouse
Experimental: as §1
Primers for qPCR were designed using the Roche Applied science Universal Probe Library software and BLAST screened for sequence specificity. Only primers producing a single dissociation peak were used. RNA was extracted from mESCs and cDNA at a concentration of 2 ng/μl was used for analysis in a MicroAmp Optical 96-well Reaction Plate (Applied Biosystems) using SYBR green Jumpstart Taq ReadyMix (Applied Biosystems). Primer sequences: 18srRNA Forward (F) […], Reverse (R) […]; ESRRB F-[…], R-[…]; KLF4 F-[…], R-ATGTCCGCCAGGTTGAAG; NANOG F-[…], R-[…]; NR0B1 F-[…], R-[…]; NR5A2 F-[…], R-[…]; TBX3 F-[…], R-[…]; TET1 F-[…], R-[…].

[7] = test system: STAT3 phosphorylation in wtD3 mESCs; assay: Western blot analysis of phosphorylated STAT3; assay type: cell-based, mouse; settings: wtD3 mESCs vs control treated cells, western blot
Experimental: as §1
Cells were harvested using cell dissociation buffer, centrifuged and washed with PBS prior to lysis using Radioimmunoprecipitation (RIPA) buffer (Sigma) containing protease inhibitor cocktail tablets (1 tablet per 10 ml RIPA buffer) (Roche Applied Science) at a concentration of 2 × 10^7 cell/ml. Lysates were separated by SDS-PAGE and electrotransferred onto nitrocellulose membrane as previously described. The membrane was probed using the appropriate primary antibody with subsequent incubation with HRP-conjugated secondary antibody. The membrane was exposed to an autoradiographic film (Hyperfilm ECL, GE Healthcare, Amersham, UK) for the appropriate time period in an X-ray cassette before the film was manually developed in a dark room using Kodak GBX developer and fixer solutions (Sigma, Dorset, UK). Primary antibodies: anti-α-tubulin, 1:2000 dilution (T9026, Sigma, Dorset, UK); anti-AKT, 1:200 dilution (#9272, Cell Signalling Technology, MA, USA); anti-pAKT (Ser473), 1:200 (#4060S, Cell Signalling Technology, MA, USA); anti-STAT3, 1:200 dilution (SC-482, Santa Cruz Biotechnology Inc, TX, USA); anti-pSTAT3, 1:200 dilution (#9138S, Cell Signalling Technology, MA, USA).

pERK1/2 in wtD3 mESCs = assay: Western blot analysis of phosphorylated ERK1/2; assay type: cell-based, mouse
[8] = test system: NANOG protein in wtD3 mESCs; assay: Immunofluorescence microscopy analysis of NANOG protein expression; assay type: cell-based, mouse; settings: 96 h / 4 days where stated
Experimental: as §2, with “For immunofluorescence microscopy analysis of fluorescent-tagged peptides, cells were incubated in 500 μM peptide in cell culture medium for 15 minutes, washed twice in ice cold PBS and mounted with Vectorshield containing DAPI.” left out
as §3

mESCs = assay: Cell viability in monolayer culture; assay type: cell-based, mouse; settings: data not shown
[9] = target: His-tagged Recombinant Mouse E-Cadherin Fc Chimera (mouse) (UniProt P09803); assay: SPR; as a1, E-cadherin-Fc captured on the HTE chip; peptide dissolved in 10%v/v DMSO/H2O; EpepP7R at 0.3, 1, 3, 5, 10 μM; equilibrium analysis
[10] = target: T2, His-tagged Recombinant Mouse E-Cadherin Fc Chimera, P09803; assay: Biacore SPR equilibrium affinity capture analysis; settings: chain shown with the change
T2 chain: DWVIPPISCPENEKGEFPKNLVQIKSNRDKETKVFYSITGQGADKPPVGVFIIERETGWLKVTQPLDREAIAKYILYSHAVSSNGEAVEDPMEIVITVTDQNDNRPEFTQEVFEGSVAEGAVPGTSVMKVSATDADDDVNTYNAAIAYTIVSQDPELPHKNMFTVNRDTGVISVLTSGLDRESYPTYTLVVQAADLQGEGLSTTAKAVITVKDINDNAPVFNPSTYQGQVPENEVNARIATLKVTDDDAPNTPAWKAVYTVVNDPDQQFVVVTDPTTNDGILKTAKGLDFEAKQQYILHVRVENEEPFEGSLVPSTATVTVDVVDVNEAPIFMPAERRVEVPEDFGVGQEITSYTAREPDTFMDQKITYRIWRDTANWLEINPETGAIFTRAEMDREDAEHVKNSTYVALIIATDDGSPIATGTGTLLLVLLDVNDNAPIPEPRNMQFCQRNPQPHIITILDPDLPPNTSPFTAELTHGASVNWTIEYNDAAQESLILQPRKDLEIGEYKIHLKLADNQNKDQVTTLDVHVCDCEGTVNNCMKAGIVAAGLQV

[11] = transcript, mESCs, Fig. 6a summary

SWELAYPLRANL [EpepY5A]
Kd [1]: 8.82 µM

Epep-F: Epep with fluorescein-5(6)-isothiocyanate label conjugated to the NH2-terminus via a Nova linker ({FITC′-Nova linker}-SWELYYPLRANL; reading uncertain)
Effect on cell-cell contact (in words) (wtD3 mESCs [2]): loss of cell-cell contact
Binding of fluorescent-tagged peptide to wtD3 versus Ecad−/− mESCs (wtD3 and Ecad−/− mESCs): preferential binding to wtD3 ESCs

SWELYYRLRANL-NH2 (C-terminus assumed) [EpepP7R]
solvent required for complete solubilization ([3]; 100 mM stock): 10%v/v DMSO/H2O
solubility in water ([3]; lyophilized powder, stock in water): < 100 mM
Loss of cell-cell contact (10μM)? (wtD3 mESCs [2]; mESCs, 10 μM, Fig. 6a summary): YES
Effect on cell-cell contact (in words) (wtD3 mESCs [2]): Abrogation of E-cadherin mediated cell-cell contact was observed with EpepP7R (Fig. 5c and Figure S1b), although cell dissociation was reduced compared to Epep

Cc1c[nH]c(/C=C2\C(=O)Nc3ccccc32)c1CCC(=O)O [SU5402]
OCT4 protein expression, inhibitor with vehicle control [4]: maintained expression of OCT4 protein

SWELYYP [EpepΔCtm]
viable population (lower left box) (wtD3 mESCs [5]): 59.1%
Kd [1]: 2.7 µM

SAELYYPLRANL [EpepW2A]
Kd [1]: 55 µM

NC(=O)c1ccc(-c2nc(-c3ccc4c(c3)OCO4)c(-c3ccccn3)[nH]2)cc1 [SB431542]
OCT4 protein expression, inhibitor with vehicle control [4]: maintained expression of OCT4 protein

SRELYYPLRANL [EpepW2R, Epep with the Trp-2 residue replaced with arginine, …]
Loss of Nanog [6, 11]: YES
Loss of Nr0b1 [6, 11]: YES
Loss of Nr5a2 [6, 11]: YES
Loss of TBX3 [6, 11]: YES
Transcripts with decreased expression compared to control (qPCR) ([6]; wtD3 mESCs, 10 μM peptide, 24 h): Nanog, Tbx3, Nr0b1 and Nr5a2
Transcripts unchanged / not inhibited (qPCR) ([6]; wtD3 mESCs, 24 h treatment): Klf4 and Esrrb
OCT4 protein expression in the presence of SU5402 ([4]; peptide-treated wtD3 mESCs plus FGFR1 inhibitor SU5402, after 5 days): increased cell death and statistically significant loss of OCT protein expression
Effect on cell-cell contact (in words) (wtD3 mESCs [2]): did not induce loss of cell-cell contact
Effect on STAT3 phosphorylation (in words) [7]: unaffected
pERK1/2 compared to untreated mESCs (pERK1/2 in wtD3 mESCs): decreased pERK1/2
NANOG protein expression [8]: decreased levels of protein
cell viability in monolayer culture (mESCs): no significant difference in cell viability
Binding of fluorescent-tagged peptide to wtD3 versus Ecad−/− mESCs (wtD3 and Ecad−/− mESCs): binds specifically to E-cadherin
KD [1]: did not produce a strong enough response to perform equilibrium analysis

SWALYYPLRANL [EpepE3A]
Kd [1]: 6.9 µM

SWELYAPLRANL [EpepY6A]
Kd [1]: 21.4 µM

SWEAYYPLRANL [EpepL4A]
Kd [1]: 3.61 µM

B1: EpepP7R (peptide)
peptide: SWELYYRLRANL
Kd [9]: 3.87 µM

B2: Epep (E-cadherin binding peptide H-…-NH2) S1A (peptide)
chain: AWELYYPLRANL
Kd [10]: 1190 nM
